Measurements as given in a melting point compilation (Tetko et al.; mined from patent text by program, amines drawn as free bases though some values may be those of a salt).

| SMILES | melting point [°C] |
| --- | --- |
| CCCCCCCCCCCCCCCCCCCCSCCCO | 58 to 60 |
| CCCCCCCCCCCCOCC1CN(c2cc3c(cc2F)c(=O)c(C(=O)O)cn3CC)CCN1C (stereo not drawn) | 166 to 168 |
| O=C1c2ccccc2C(c2ccc(Cl)cc2)(c2c(O)cc(O)cc2O)N1Cc1ccc([N+](=O)[O-])cc1 (stereo not drawn) | 196 to 198 |
| CC(=O)c1cc(I)c2c(c1)C=CC(C)(C)O2 | 102 |
| CCc1nc2ccccc2n(-c2ccc(Cl)cc2)c1=O | 163 to 165 |
| CS(=O)(=O)c1ccc(/C=C2/C(=O)CCc3ccccc32)cc1 | 152 to 153 |
| O=C1C[C@@H](O)C[C@H](CCc2c(Cl)cc(Cl)cc2OCc2ccc(F)cc2)O1 | 133 to 135 |
| CCCN(CC(=O)Nc1c(OC)nc(C)nc1OC)c1ccccc1 | 173 to 174 |
| Brc1ccc2c(Br)c3cc(Br)ccc3c(Br)c2c1 | 293 to 296 |
| OCCOc1cc(O)ccc1-c1nc2cnccc2[nH]1 | 250 |
| Cc1cc(C)cc(COC2CCCCC2(N)c2ccccc2)c1 (stereo not drawn) | 75 to 78 |
| COc1cc(Oc2ccc(C(=O)N(C3CCCCC3)C3CCCC3)cc2)cc(OC)c1OC | 166 |
| CCCCCCCCCCCCN=C=O | 100 to 103 |
| CCOC(=O)c1c2n(c3ccc(Cl)c(Cl)c3c1=O)CCS2 | 266 to 267 |
| Cc1nc(N2CCN(CC3CC3)C2=O)sc1C(=O)NCc1cccnn1 | 187 to 189 |
| OCC1(c2nn(Cc3ccccc3F)c3nccnc23)CC=CO1 (stereo not drawn) | 194 |
| COc1ccc(C(C)C)cc1-c1cc(-c2nnnn2C2CCN(C(=O)OC(C)(C)C)C2)c(OCc2ccccc2)cc1OCc1ccccc1 (stereo not drawn) | 73 to 77 |
| Cc1cc(C(=O)NCCO)ncc1C(c1cc(F)ccc1F)S(=O)(=O)c1ccc(F)cc1 (stereo not drawn) | 153 to 154 |
| CC(C)n1nc(-c2c(-c3ccccc3)nn3ccc(N4CCNCC4)cc23)ccc1=O | 203 to 204 |
| COc1cc2nc(N)nc(-c3ccc(O)cc3)c2cc1OC | 245 to 248 |
| CN(C)c1ccc(NC(=O)CCn2c(-c3ccc(Cl)cc3)nc3cccnc32)cc1 | 216 to 218 |
| Cn1cnnc1C(O)(c1ccc(Cl)cc1)c1ccc2c(c1)c(-c1cccc(Cl)c1)cc(=O)n2Cc1ccc(C#N)cc1 (stereo not drawn) | 185 |
| CC(C)(C)OC(=O)NC1CCCCCC=CC2CC2(C(=O)NS(=O)(=O)C2CC2)NC(=O)C2CC(OC(=O)c3ccc(Cl)c(F)c3)CN2C1=O (stereo not drawn) | 147 to 149 |
| N#Cc1c(Cl)cc(Cl)c(CCC(=O)O)c1Cl | 127 to 129 |

| SMILES | melting point [°C] |
| --- | --- |
| OC(CN=CCc1cnc(-c2ccccc2)nc1-c1ccccc1)c1ccccc1 (stereo not drawn) | 140 to 144 |
| Cc1ccc2nc3[nH]c(=O)[nH]c3cc2c1C | > 300 |
| CC1(C)CC(n2ccc(-c3ccc(F)cc3)c2-c2ccncc2)CC(C)(C)N1 | 118 to 119 |
| CCOC(=O)C1=C(C)NC(C)=C(C(=O)OCC)C1c1ccc(Cl)cc1Cl | 148 to 149 |
| CC(C)CN1N=Cc2cc(S(N)(=O)=O)sc2S1(=O)=O | 130 to 132 |
| CCCCN1C(=O)N(C2CCN(CC3CCCCC3)CC2)C(c2ccccc2)c2ccccc21 (stereo not drawn) | 115 to 117 |
| CN(C)CCN1Cc2cccc3cccc(c23)S1(=O)=O | 97 to 98 |
| CCOC(=O)c1cnn2c1nc(OCC)c1cnc3c(cnn3CC)c12 | 167 to 168 |
| O=C(NC1N=C(c2ccccc2)c2ccccc2NC1=O)c1ccc(-c2ccccc2)cc1 (racemic) | 274 to 276 |
| Cc1ccccc1C(=O)Nc1nc(C(Cl)(Cl)Cl)ns1 | 170 |
| O=C(O)c1nn(-c2ccc(Cl)cc2Cl)c2c1CCc1c(Br)csc1-2 | 239 to 242 |
| C#CCN(C)CC(O)c1cccc(O)c1 (stereo not drawn) | 102 to 103 |
| Cc1cc(-c2cccc(C3=Nc4ccc(-n5cccc5)cc4NC(=O)C3)c2)ccn1 | 206 |
| O=[PH](c1ccc2c(c1)OCO2)c1ccc2c(c1)OCO2 | 128 |
| O=C(Nc1ccc(C(=O)N2Cc3ccccc3Cc3ccccc32)cc1)c1ccccc1-c1ccccc1 | 224 to 225 |
| Nc1nc(-c2ccccc2)c(C(O)CO)c2ncnn12 (stereo not drawn) | 199 to 200 |
| CN(C)C(=O)c1ccccc1Sc1ccc(F)cc1[N+](=O)[O-] | 56 to 57 |
| O=C(Nc1ccc2c(c1)CCC2)C(=O)N1CCC(Cc2ccccc2)CC1 | 106 to 109 |
| COC(=O)c1cc2cc(-c3ccc(OC)cc3)ccc2o1 | 160 to 162 |
| O=C(OC1CCCCC1=O)c1cccc2ccccc12 (stereo not drawn) | 94 to 95 |
| O=c1cc(C(F)(F)F)[nH]c(=O)n1-c1cc([N+](=O)[O-])c(Cl)cc1F | 204 |
| Cc1ccc(S(=O)(=O)Nc2ccc3c(=O)c4c(sc3c2)CC(C)(C)CC4)cc1 | 279 |
| N#Cc1nc(N)c2ncn(C3OC(CO)C(O)C3O)c2n1 (stereo not drawn) | 195 to 197 |
| CCCCCCCCCC(O)CNCCNCC(O)CCCCCCCCC (stereo not drawn) | 130 to 138 |
